Among the test systems are 786-0 renal; PC-3 prostate; OVCAR-8 ovarian; HL-60(TB) leukemia; HCT-116 colon; TK-10 renal; UO-31 renal; OVCAR-5 ovarian; MOLT-4 leukemia; DU-145 prostate; SK-MEL-5 melanoma.
Test in all cases: NCI tumour cell line growth inhibition, 48 h

Molecules are shown by their SMILES.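 Test compounds were applied to cells in 96-well plates for 48 hours at 5 doses. TGI is the concentration that stops growth completely.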 Where a SMILES comes first, the peptide text is derived from it. [ ]: non-standard residue; d: D form. The star is where a group is joined. AllylGly = C=CC[CH](N)C(=O)O; Boc = CC(C)(C)OC(=O)*; OtBu = CC(C)(C)O*

With `C=CCC(NC(=O)C(CC(=O)OC(C)(C)C)NC(=O)OC(C)(C)C)C(=O)OC` (configuration not stated) (Boc-Asp(OtBu)-[AllylGly]-OMe; configuration not given here), the TGI is > 100 µM with 786-0 renal; > 100 µM in the assay on PC-3 prostate; 26.6 µM in the assay with OVCAR-8 ovarian; 85.5 µM in the assay with HL-60(TB) leukemia; > 100 µM in the assay on HCT-116 colon; > 100 µM with TK-10 renal. Moreover, the TGI in the assay on UO-31 renal is > 100 µM; in the assay on OVCAR-5 ovarian, > 100 µM; in the assay on MOLT-4 leukemia it was > 91.6 µM; in the assay on DU-145 prostate, > 100 µM; in the assay with SK-MEL-5 melanoma, > 57.3 µM.

Take `CC(=O)C(=[N+]=[N-])C(=O)OC(C)(C)C#N`: the TGI in the assay with 786-0 renal, in the assay on PC-3 prostate, with OVCAR-8 ovarian, with HL-60(TB) leukemia, with HCT-116 colon and in the assay with TK-10 renal was > 10 µM in each case. The TGI in the assay on UO-31 renal, in the assay on OVCAR-5 ovarian, with MOLT-4 leukemia, in the assay on DU-145 prostate and in the assay on SK-MEL-5 melanoma was > 10 µM each time.

As to `CCCCCCOc1ccc(C(=O)NOCc2ccccc2)cc1`, the TGI in the assay on 786-0 renal, in the assay on PC-3 prostate, with OVCAR-8 ovarian, with HL-60(TB) leukemia, in the assay with HCT-116 colon and with TK-10 renal was > 100 µM throughout. The TGI in the assay on UO-31 renal, in the assay on OVCAR-5 ovarian, in the assay on MOLT-4 leukemia, with DU-145 prostate and in the assay on SK-MEL-5 melanoma was > 100 µM throughout.

Take `O=C(NNC(=S)Nc1ccccc1)c1ccccc1Nc1ccccc1C(=O)NNC(=S)Nc1ccccc1`: the TGI in the assay on 786-0 renal was 41.5 µM; in the assay with PC-3 prostate, 64.8 µM; with OVCAR-8 ovarian it was 52.2 µM; with HL-60(TB) leukemia, > 100 µM; with HCT-116 colon it was 35.5 µM; in the assay with TK-10 renal it was 68.7 µM. The TGI in the assay with UO-31 renal is 44.6 µM; in the assay with OVCAR-5 ovarian, 33.6 µM; in the assay with MOLT-4 leukemia it was > 100 µM; in the assay with DU-145 prostate, > 100 µM; in the assay on SK-MEL-5 melanoma, 58.2 µM.

With `Cc1c(CCOC=O)c(=O)[nH]c2nncn12`, the TGI with 786-0 renal, in the assay with PC-3 prostate, in the assay on OVCAR-8 ovarian, with HL-60(TB) leukemia, with HCT-116 colon and in the assay on TK-10 renal was > 100 µM each time. Moreover, the TGI in the assay on UO-31 renal, with OVCAR-5 ovarian, in the assay on MOLT-4 leukemia, in the assay with DU-145 prostate and in the assay on SK-MEL-5 melanoma was > 100 µM in each case.

For `CC(N)C(C)Cc1ccccc1` (configuration not stated), the TGI in the assay on 786-0 renal, with PC-3 prostate, with OVCAR-8 ovarian, with HL-60(TB) leukemia, with HCT-116 colon and in the assay on TK-10 renal was > 100 µM throughout. Also, the TGI in the assay with UO-31 renal, with OVCAR-5 ovarian, in the assay on MOLT-4 leukemia, in the assay on DU-145 prostate and in the assay on SK-MEL-5 melanoma was > 100 µM in each case.

For the molecule `O=C/C(=C(/Br)I)c1ccccc1`, the TGI in the assay with 786-0 renal was determined as 5.38 µM; in the assay on PC-3 prostate it was 18.2 µM; in the assay with OVCAR-8 ovarian, 10.6 µM; in the assay on HL-60(TB) leukemia, 1.13 µM; in the assay with HCT-116 colon it was 4.52 µM; in the assay with TK-10 renal it was 20.2 µM. Also, the TGI with UO-31 renal is 9.32 µM; in the assay on OVCAR-5 ovarian, 23.6 µM; in the assay on MOLT-4 leukemia it was 4.28 µM; in the assay with DU-145 prostate, 29.2 µM; in the assay with SK-MEL-5 melanoma it was 13.8 µM.

Regarding `Cc1cccc2c1Oc1ccccc1C2NC(=O)c1ccc([N+](=O)[O-])cc1` (configuration not stated), the TGI in the assay with 786-0 renal, in the assay on PC-3 prostate, with OVCAR-8 ovarian, in the assay on HL-60(TB) leukemia, in the assay on HCT-116 colon and with TK-10 renal was > 100 µM each time. Moreover, the TGI in the assay on UO-31 renal, in the assay with OVCAR-5 ovarian, in the assay on MOLT-4 leukemia, with DU-145 prostate and in the assay with SK-MEL-5 melanoma was > 100 µM throughout.

Regarding `Cc1ccc(-c2c(C#N)c(S)n(NS(=O)(=O)c3ccc(C)cc3)c(=O)c2C#N)cc1`, the TGI was > 100 µM in the assay with 786-0 renal; > 100 µM in the assay with PC-3 prostate; 41.8 µM in the assay on OVCAR-8 ovarian; > 100 µM in the assay on HL-60(TB) leukemia; 90.9 µM in the assay on HCT-116 colon; 50.5 µM with TK-10 renal. Also, the TGI is 38.5 µM in the assay with UO-31 renal; 67 µM in the assay with OVCAR-5 ovarian; > 100 µM in the assay on MOLT-4 leukemia; > 100 µM in the assay with DU-145 prostate; 49.2 µM in the assay on SK-MEL-5 melanoma.

For `O=C1/C(=C\c2cccc(Oc3ccccc3)c2)S(=O)(=O)C(c2ccccc2)N1c1ccc(Cl)cc1` (configuration not stated), the TGI in the assay with 786-0 renal is 27 µM; in the assay on PC-3 prostate it was > 100 µM; in the assay on OVCAR-8 ovarian, 37.3 µM; in the assay with HL-60(TB) leukemia, 32.7 µM; in the assay with HCT-116 colon it was 26.8 µM; with TK-10 renal, > 100 µM. Besides, the TGI in the assay with UO-31 renal worked out at 26.8 µM; with OVCAR-5 ovarian it was 88.7 µM; with MOLT-4 leukemia, 33.1 µM; in the assay with DU-145 prostate it was 37.4 µM; with SK-MEL-5 melanoma, 30.5 µM.

Turning to `CC1=C2c3c(C)ccc4ccc(C)c(c34)C2(O)C(C)C1=O` (configuration not stated), the TGI in the assay on 786-0 renal is > 100 µM; in the assay with PC-3 prostate, > 100 µM; in the assay with OVCAR-8 ovarian, 49.4 µM; in the assay with HL-60(TB) leukemia it was 91.6 µM; in the assay on HCT-116 colon it was > 100 µM; with TK-10 renal it was > 100 µM. Further, the TGI with UO-31 renal, with OVCAR-5 ovarian, in the assay on MOLT-4 leukemia, in the assay on DU-145 prostate and with SK-MEL-5 melanoma was > 100 µM in each case.

In the case of `O=c1[nH]c(=O)n(C2CC(O)C(CO)O2)cc1OCCCc1ccccc1` (configuration not stated), the TGI in the assay on 786-0 renal, in the assay with PC-3 prostate, in the assay with OVCAR-8 ovarian, in the assay on HL-60(TB) leukemia, in the assay on HCT-116 colon and in the assay on TK-10 renal was > 100 µM throughout. The TGI in the assay with UO-31 renal, in the assay with OVCAR-5 ovarian, in the assay on MOLT-4 leukemia, in the assay on DU-145 prostate and in the assay on SK-MEL-5 melanoma was > 100 µM each time.
